Assay results: ChEMBL document CHEMBL2150993, “Substituted thiazoles VII. Synthesis and antitumor activity of certain 2-(substituted amino)-4-phenyl-1,3-thiazole analogs” (2012)

How the values were obtained:
Type in all cases: functional
Conditions in all cases: at 10 µM
[1] = tested on: CCRF-CEM; test: Growth inhibition of human CCRF-CEM cells after 48 hrs by cell counting analysis
[2] = tested on: HL-60; test: Growth inhibition of human HL60 cells after 48 hrs by cell counting analysis
[3] = tested on: K562; test: Growth inhibition of human K562 cells after 48 hrs by cell counting analysis
[4] = tested on: RPMI-8226; test: Growth inhibition of human RPMI8226 cells after 48 hrs by cell counting analysis
[5] = tested on: SR; test: Growth inhibition of human SR cells after 48 hrs by cell counting analysis
[6] = tested on: A549; test: Growth inhibition of human A549 cells after 48 hrs by cell counting analysis
[7] = tested on: EKVX; test: Growth inhibition of human EKVX cells after 48 hrs by cell counting analysis
[8] = tested on: HOP-62; test: Growth inhibition of human HOP62 cells after 48 hrs by cell counting analysis
[9] = tested on: HOP-92; test: Growth inhibition of human HOP92 cells after 48 hrs by cell counting analysis
[10] = tested on: NCI-H226; test: Growth inhibition of human NCI-H226 cells after 48 hrs by cell counting analysis
[11] = tested on: NCI-H23; test: Growth inhibition of human NCI-H23 cells after 48 hrs by cell counting analysis
[12] = Growth inhibition of human NCI-322M cells after 48 hrs by cell counting analysis
[13] = tested on: NCI-H522; test: Growth inhibition of human NCI-H522 cells after 48 hrs by cell counting analysis
[14] = tested on: HCC 2998; test: Growth inhibition of human HCC2998 cells after 48 hrs by cell counting analysis
[15] = tested on: HCT-15; test: Growth inhibition of human HCT15 cells after 48 hrs by cell counting analysis
[16] = tested on: HT-29; test: Growth inhibition of human HT-29 cells after 48 hrs by cell counting analysis
[17] = tested on: KM12; test: Growth inhibition of human KM12 cells after 48 hrs by cell counting analysis
[18] = tested on: SW-620; test: Growth inhibition of human SW620 cells after 48 hrs by cell counting analysis
[19] = tested on: SF-268; test: Growth inhibition of human SF268 cells after 48 hrs by cell counting analysis
[20] = tested on: SF-295; test: Growth inhibition of human SF295 cells after 48 hrs by cell counting analysis
[21] = tested on: SF-539; test: Growth inhibition of human SF539 cells after 48 hrs by cell counting analysis
[22] = tested on: SNB-19; test: Growth inhibition of human SNB19 cells after 48 hrs by cell counting analysis
[23] = tested on: SNB-75; test: Growth inhibition of human SNB75 cells after 48 hrs by cell counting analysis
[24] = tested on: U-251; test: Growth inhibition of human U251 cells after 48 hrs by cell counting analysis
[25] = tested on: LOX IMVI; test: Growth inhibition of human LOXIMVI cells after 48 hrs by cell counting analysis
[26] = tested on: Malme-3M; test: Growth inhibition of human MALME-3M cells after 48 hrs by cell counting analysis
[27] = tested on: M14; test: Growth inhibition of human M14 cells after 48 hrs by cell counting analysis
[28] = tested on: MDA-MB-435; test: Growth inhibition of human MDA-MB-435 cells after 48 hrs by cell counting analysis
[29] = tested on: SK-MEL-2; test: Growth inhibition of human SK-MEL-2 cells after 48 hrs by cell counting analysis
[30] = tested on: SK-MEL-28; test: Growth inhibition of human SK-MEL-28 cells after 48 hrs by cell counting analysis
[31] = tested on: SK-MEL-5; test: Growth inhibition of human SK-MEL-5 cells after 48 hrs by cell counting analysis
[32] = tested on: UACC-257; test: Growth inhibition of human UACC257 cells after 48 hrs by cell counting analysis
[33] = tested on: UACC-62; test: Growth inhibition of human UACC62 cells after 48 hrs by cell counting analysis
[34] = tested on: IGROV-1; test: Growth inhibition of human IGROV1 cells after 48 hrs by cell counting analysis
[35] = tested on: OVCAR-3; test: Growth inhibition of human OVCAR3 cells after 48 hrs by cell counting analysis
[36] = tested on: OVCAR-4; test: Growth inhibition of human OVCAR4 cells after 48 hrs by cell counting analysis
[37] = tested on: OVCAR-5; test: Growth inhibition of human OVCAR5 cells after 48 hrs by cell counting analysis
[38] = tested on: OVCAR-8; test: Growth inhibition of human OVCAR8 cells after 48 hrs by cell counting analysis
[39] = Growth inhibition of human NCI-ADR-RES cells after 48 hrs by cell counting analysis
[40] = tested on: SK-OV-3; test: Growth inhibition of human SKOV3 cells after 48 hrs by cell counting analysis
[41] = tested on: ACHN; test: Growth inhibition of human ACHN cells after 48 hrs by cell counting analysis
[42] = tested on: CAKI-1; test: Growth inhibition of human Caki1 cells after 48 hrs by cell counting analysis
[43] = tested on: RXF 393; test: Growth inhibition of human RXF393 cells after 48 hrs by cell counting analysis
[44] = tested on: SN12C; test: Growth inhibition of human SN12C cells after 48 hrs by cell counting analysis
[45] = tested on: TK-10; test: Growth inhibition of human TK10 cells after 48 hrs by cell counting analysis
[46] = tested on: UO-31; test: Growth inhibition of human UO31 cells after 48 hrs by cell counting analysis
[47] = tested on: PC-3; test: Growth inhibition of human PC3 cells after 48 hrs by cell counting analysis
[48] = tested on: MCF7; test: Growth inhibition of human MCF7 cells after 48 hrs by cell counting analysis
[49] = tested on: MDA-MB-231; test: Growth inhibition of human MDA-MB-231 cells after 48 hrs by cell counting analysis
[50] = tested on: BT-549; test: Growth inhibition of human BT549 cells after 48 hrs by cell counting analysis
[51] = tested on: T47D; test: Growth inhibition of human T47D cells after 48 hrs by cell counting analysis
[52] = tested on: MDA-MB-468; test: Growth inhibition of human MDA-MB-468 cells after 48 hrs by cell counting analysis
[53] = tested on: MOLT-4; test: Growth inhibition of human MOLT4 cells after 48 hrs by cell counting analysis
[54] = tested on: HCT-116; test: Growth inhibition of human HCT116 cells after 48 hrs by cell counting analysis

Cc1ccc(-c2csc(NC(=O)CN3CCN(C)CC3)n2)cc1
growth inhibition (GI) [1]: <10% | growth inhibition (GI) [2]: <10% | growth inhibition (GI) [3]: 11.4% | growth inhibition (GI) [4]: <10% | growth inhibition (GI) [5]: <10% | growth inhibition (GI) [6]: <10% | growth inhibition (GI) [7]: <10% | growth inhibition (GI) [8]: <10% | growth inhibition (GI) [9]: <10% | growth inhibition (GI) [10]: <10% | growth inhibition (GI) [11]: <10% | growth inhibition (GI) [12]: <10% | growth inhibition (GI) [13]: <10% | growth inhibition (GI) [14]: <10% | growth inhibition (GI) [15]: <10% | growth inhibition (GI) [16]: <10% | growth inhibition (GI) [17]: <10% | growth inhibition (GI) [18]: <10% | growth inhibition (GI) [19]: <10% | growth inhibition (GI) [20]: <10% | growth inhibition (GI) [21]: <10% | growth inhibition (GI) [22]: <10% | growth inhibition (GI) [23]: 42.2% | growth inhibition (GI) [24]: <10% | growth inhibition (GI) [25]: <10% | growth inhibition (GI) [26]: <10% | growth inhibition (GI) [27]: <10% | growth inhibition (GI) [28]: <10% | growth inhibition (GI) [29]: <10% | growth inhibition (GI) [30]: <10% | growth inhibition (GI) [31]: <10% | growth inhibition (GI) [32]: <10% | growth inhibition (GI) [33]: <10% | growth inhibition (GI) [34]: <10% | growth inhibition (GI) [35]: <10% | growth inhibition (GI) [36]: <10% | growth inhibition (GI) [37]: <10% | growth inhibition (GI) [38]: <10% | growth inhibition (GI) [39]: <10% | growth inhibition (GI) [40]: <10% | growth inhibition (GI) [41]: <10% | growth inhibition (GI) [42]: 12% | growth inhibition (GI) [43]: <10% | growth inhibition (GI) [44]: 10.4% | growth inhibition (GI) [45]: <10% | growth inhibition (GI) [46]: 19.9% | growth inhibition (GI) [47]: <10% | growth inhibition (GI) [48]: 12.7% | growth inhibition (GI) [49]: 34.2% | growth inhibition (GI) [50]: 12.8% | growth inhibition (GI) [51]: <10% | growth inhibition (GI) [52]: <10% | growth inhibition (GI) [53]: 13.4% | growth inhibition (GI) [54]: <10%

CN1CCN(CCC(=O)Nc2nc(-c3ccc(Br)cc3)cs2)CC1
growth inhibition (GI) [1]: 24.9% | growth inhibition (GI) [2]: 37.7% | growth inhibition (GI) [3]: 52.4% | growth inhibition (GI) [4]: 30.5% | growth inhibition (GI) [5]: <10% | growth inhibition (GI) [6]: 22.2% | growth inhibition (GI) [7]: 10.8% | growth inhibition (GI) [8]: 25% | growth inhibition (GI) [9]: 42.7% | growth inhibition (GI) [10]: 19.1% | growth inhibition (GI) [11]: 26% | growth inhibition (GI) [12]: 17.2% | growth inhibition (GI) [13]: 28.5% | growth inhibition (GI) [14]: <10% | growth inhibition (GI) [15]: 42.6% | growth inhibition (GI) [16]: 80.4% | growth inhibition (GI) [17]: <10% | growth inhibition (GI) [18]: <10% | growth inhibition (GI) [19]: 12.8% | growth inhibition (GI) [20]: 14.4% | growth inhibition (GI) [21]: 31.4% | growth inhibition (GI) [22]: 20.9% | growth inhibition (GI) [23]: 47.9% | growth inhibition (GI) [24]: 33.6% | growth inhibition (GI) [25]: 31.8% | growth inhibition (GI) [26]: 24.6% | growth inhibition (GI) [27]: 33.7% | growth inhibition (GI) [28]: 50.6% | growth inhibition (GI) [29]: <10% | growth inhibition (GI) [30]: 23.4% | growth inhibition (GI) [31]: 76.2% | growth inhibition (GI) [32]: 36.4% | growth inhibition (GI) [33]: 71.6% | growth inhibition (GI) [34]: 20.4% | growth inhibition (GI) [35]: <10% | growth inhibition (GI) [36]: <10% | growth inhibition (GI) [37]: 15.6% | growth inhibition (GI) [38]: <10% | growth inhibition (GI) [39]: 22.9% | growth inhibition (GI) [40]: <10% | growth inhibition (GI) [41]: 15.9% | growth inhibition (GI) [42]: 30.2% | growth inhibition (GI) [43]: 38.1% | growth inhibition (GI) [44]: 31.9% | growth inhibition (GI) [45]: 22.5% | growth inhibition (GI) [46]: 50.8% | growth inhibition (GI) [47]: 24.6% | growth inhibition (GI) [48]: 28.8% | growth inhibition (GI) [49]: 64.3% | growth inhibition (GI) [50]: 32.5% | growth inhibition (GI) [51]: 34.9% | growth inhibition (GI) [52]: 48.7% | growth inhibition (GI) [53]: 38.1% | growth inhibition (GI) [54]: 42.5%
